Twelve compounds from US5773646A, “Meta-substituted phenylene derivatives” (G. D. Searle & Co., priority 1997, dated 1998) can be followed below.

Structures can show the parent of a compound that is named as a salt.

Experiment [1] deals with T1, Human vitronectin receptor (αv β3) (Homo sapiens, UniProt P05106+P06756).
T1 construct: Human vitronectin receptor(αv β3) was purified from human placenta; from tissue; host or cells: human placenta
Briefly: Vitronectin adhesion assay (solid phase receptor assay, biotinylated vitronectin competition). Type of experiment: binding. Particulars: inhibition of 50% of the maximum binding of biotinylated vitronectin; 1 nM labeled ligand, 2 hours, room temperature, highest concentration of test compound 1.0×10^-4 M; read-out: AvB3 IC50. The method in brief: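 Placenta-purified αvβ3 coated at 1.0 μg/mL in TBS (1 mM Ca, Mg, Mn, pH 7.4), overnight 4 °C. Compound competed 2 h at RT with 1 nM biotinylated vitronectin (final; top compound 1.0×10^-4 M); bound ligand detected by HRP anti-biotin/OPD at 450 nm, normalized to no-competitor controls, four-parameter fit.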

The target in experiment [2] is T2, Human fibrinogen receptor (αIIb β3) (Homo sapiens, UniProt P05106+P08514).
T2 construct: Human fibrinogen receptor (αIIb β3) was purified from outdated platelets; from tissue; host or cells: outdated human platelets
Nature of the experiment: Purified IIb/IIIa receptor assay (solid phase receptor assay, biotinylated vitronectin competition). Particulars: inhibition of 50% of the maximum binding of biotinylated vitronectin; 1 nM labeled ligand, 2 hours, room temperature, highest concentration of test compound 1.0×10^-4 M. The method in brief: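 Platelet-purified αIIbβ3 was coated at 100 ng/well in TBS with 1 mM Ca²⁺/Mg²⁺/Mn²⁺, pH 7.4, then BSA-blocked. Compound (up to 1.0×10⁻⁴ M final) competed with 1 nM biotinylated vitronectin for 2 h at room temperature. Bound ligand was detected with HRP anti-biotin at A450, normalized to maximum binding, and curve-fitted.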

The term IC50 denotes the point on the concentration scale where inhibition reaches its midpoint. As to `CCOC(=O)CCc1cccc(CNC(=O)c2cccc(C#N)c2)c1` [Example 19, ethyl 3-[[[[3-(cyano)phenyl]carbonyl]amino]methyl]benzenepropanoate, diacetate salt], the results for the IC50 in experiment [1] and in experiment [2] were above 100 µM and 57.6 µM, respectively.

For `O=C(O)CC(c1cc(F)cc(F)c1)c1cccc(NS(=O)(=O)c2cccc(NC(=S)NCc3ccccc3)c2)c1` (stereo not drawn) [Example 83, 3,5-difluoro-β-[3-[[[3-[[[(phenylmethyl)amino]thiocarbonyl]amino]phenyl]sulfonyl]amino]phenyl]benzenepropanoic Acid], the IC50 is 0.122 µM in experiment [1] and 18.9 µM in experiment [2].

Consider `O=C1CC(c2cccc(NS(=O)(=O)c3cccc(NC4=NCCN4)c3)c2)c2ccccc2O1` (stereo not drawn) [Example 101, 3-[(4,5-dihydro-1H-imidazol-2-yl)amino]-N-[3-(3,4-dihydro-2-oxo-2H-benzopyran-4-yl)phenyl]benzenesulfonamide, Trifluoroacetate Salt], for which the IC50 in experiment [1] worked out at 0.0503 µM; in experiment [2], 3.25 µM.

For `O=C(O)CC(c1ccccc1)c1cccc(NS(=O)(=O)c2cccc(NC(=O)NCc3ccccc3)c2)c1` (stereo not drawn) [Example 13, 3-[[[3-[[[(phenylmethyl)amino]carbonyl]amino]phenyl]sulfonyl]amino]-β-phenylbenzenepropanoic acid, monohydrate], the IC50 was 0.163 µM in experiment [1] and 11.8 µM in experiment [2].

As for `CCOC(=O)CC(CC)c1cccc(CNC(=O)c2cccc(NC(=N)N)c2)c1` (stereo not drawn) [Example 41, ethyl 3-[[[[3-[(aminoiminomethyl)amino]phenyl]carbonyl]amino]methyl)-β-ethylbenzenepropanoate, trifluoroacetate salt], the results for the IC50 in experiment [1] and in experiment [2] were 11.3 µM and above 100 µM, respectively.

Consider `N=C(N)Nc1cccc(C(=O)NCc2cccc(CCC(=O)O)c2)c1` [Example 35, 3-[[[[3-[(aminoiminomethyl)amino]phenyl]carbonyl]amino]methyl]benzenepropanoic acid, trifluoroacetate salt], for which the concentration for half-maximal inhibition (IC50) came to 0.183 µM in experiment [1] and 6.08 µM in experiment [2].

Consider `C[C@H](CC(=O)O)c1cccc(CNC(=O)c2cccc(NC(=N)N)c2)c1` [Example 56, 3-[[[[3-[(aminoiminomethyl)amino]phenyl]carbonyl]amino]methyl]-βR-methylbenzenepropanoic acid, trifluoroacetate salt hydrate], for which the half-inhibitory concentration (IC50) came out at 0.00688 µM in experiment [1] and 1.31 µM in experiment [2].

For the compound `N=C(N)Nc1cccc(COc2cccc(C(CC(=O)O)c3ccccc3)c2)c1` (stereo not drawn) [Example 96, 3-[[3-[(aminoiminomethyl)amino]phenyl]methoxy]-β-phenylbenzenepropanoic Acid, Trifluoroacetate Salt], the values for the IC50 in experiment [1] and in experiment [2] were 0.435 µM and 2.28 µM, respectively.

For the compound `C[C@@H](CC(=O)O)c1cccc(CNC(=O)c2cccc(NC(=N)N)c2)c1` [Example 57, 3-[[[[3-[(aminoiminomethyl)amino]phenyl]carbonyl]amino]methyl]-βS-methylbenzenepropanoic acid], the half-inhibitory concentration (IC50) worked out at 0.189 µM in experiment [1] and 17.6 µM in experiment [2].

For the compound `N=C(N)Nc1cccc(C(=O)NCc2cccc(C(CC(=O)O)c3ccccc3)c2)c1` (stereo not drawn) [Example 38, 3-[[[[3-[(aminoiminomethyl)amino]phenyl]carbonyl]amino]methyl]-β-phenylbenzenepropanoic acid, trifluoroacetate salt], the concentration for half-maximal inhibition (IC50) in experiment [1] worked out at 0.00895 µM; in experiment [2], 0.364 µM.

For `N=C(N)c1cccc(C(=O)NCc2cccc(CCC(=O)O)c2)c1` [Example 23, 3-[[[[3-(aminoiminomethyl)phenyl]carbonyl]amino]methyl]benzenepropanoic acid, trifluoroacetate salt], the IC50 in experiment [1] is above 10 µM; in experiment [2], 4.35 µM.

`N=C(N)Nc1cccc(C(=O)Nc2cccc(CCC(=O)O)c2)c1` [Example 36, 3-[[[3-[(aminoiminomethyl)amino]phenyl]carbonyl]amino]benzenepropanoic acid, trifluoroacetate salt]: the figures for the IC50 in experiment [1] and in experiment [2] were 13.7 µM and 72.4 µM, respectively.
